The values below are quoted from earlier work in US12708633B2, “Cannabidiol-dominant formulations, methods of manufacturing, and uses thereof” (Tilray Brands, Inc., priority 2021, dated 2026).

The conditions of series [1]: due to high intestinal permeability and low aqueous solubility.
For series [2] the following is noted: humans.

Regarding `C=C(C)[C@@H]1CCC(C)=C[C@H]1c1c(O)cc(CCCCC)cc1O` [CBD, Cannabidiol], in series [1], the “Biopharmaceutical Classification System (BCS) class” value was “Class II”. For the same compound, the oral bioavailability entry in series [2] is reported as “low”.
